# PubChem BioAssay AID328 (DTP/NCI, 2004)
# “And” between values parts separate entries of the source, which are not always exact repeats. Equal values may be shown once. Inconclusive results and toxic doses are left out.
# System: BDF1 mice, P388 leukemia ip, median survival T/C
# Test: NCI In Vivo Anticancer Drug Screen. Data for tumor model P388 Leukemia (intraperitoneal) in B6D2F1 (BDF1) mice
# Conditions: endpoint: median survival time, higher = longer survival
# In short: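 Compound-treated tumour-bearing mice were compared with vehicle-treated controls. Survival was recorded, and the value is the treated-group measurement divided by the control-group measurement (T/C).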
# [1] = dose: 50.0 mg/kg/injection, schedule: Q04DX003 (ip), vehicle: saline
# [2] = dose: 100.0 mg/kg/injection, schedule: Q04DX003 (ip), vehicle: saline with Tween-80
# [3] = dose: 200.0 mg/kg/injection, schedule: Q04DX003 (ip), vehicle: saline with Tween-80
# [4] = dose: 50.0 mg/kg/injection, schedule: Q01DX009 (ip), vehicle: saline with Tween-80
# [5] = dose: 400.0 mg/kg/injection, schedule: Q04DX003 (ip), vehicle: saline with Tween-80
# [6] = dose: 6.25 mg/kg/injection, schedule: Q01DX009 (ip), vehicle: water
# [7] = dose: 12.5 mg/kg/injection, schedule: Q01DX009 (ip), vehicle: water
# [8] = dose: 25.0 mg/kg/injection, schedule: Q01DX009 (ip), vehicle: water
# [9] = dose: 50.0 mg/kg/injection, schedule: Q01DX009 (ip), vehicle: water
# [10] = dose: 50.0 mg/kg/injection, schedule: Q04DX003 (ip), vehicle: water
# [11] = dose: 100.0 mg/kg/injection, schedule: Q01DX009 (ip), vehicle: water
# [12] = dose: 100.0 mg/kg/injection, schedule: Q04DX003 (ip), vehicle: water
# [13] = dose: 200.0 mg/kg/injection, schedule: Q01DX009 (ip), vehicle: water
# [14] = dose: 12.5 mg/kg/injection, schedule: Q01DX009 (ip), vehicle: saline
# [15] = dose: 12.5 mg/kg/injection, schedule: Q04DX003 (ip), vehicle: saline
# [16] = dose: 25.0 mg/kg/injection, schedule: Q01DX009 (ip), vehicle: saline
# [17] = dose: 25.0 mg/kg/injection, schedule: Q04DX003 (ip), vehicle: saline
# [18] = dose: 100.0 mg/kg/injection, schedule: Q04DX003 (ip), vehicle: saline sonified
smiles,measurement,setting,value
CCCN(CCC)CC(C)O (stereo unspecified),T/C,[1],109 % of control
same,T/C,"dose: 100.0 mg/kg/injection, schedule: Q04DX003 (ip), vehicle: saline",100 % of control
same,T/C,"dose: 200.0 mg/kg/injection, schedule: Q04DX003 (ip), vehicle: saline",95 % of control
Cc1ncc([N+](=O)[O-])n1CCN=[N+]=[N-],T/C,[2],104 % of control
same,T/C,[3],123 % of control
CSc1nc(=O)c(=O)nc(Nc2ccccc2)n1-c1ccccc1,T/C,"dose: 12.5 mg/kg/injection, schedule: Q01DX009 (ip), vehicle: saline with Tween-80",88 % of control
same,T/C,"dose: 25.0 mg/kg/injection, schedule: Q01DX009 (ip), vehicle: saline with Tween-80",95 % of control
same,T/C,[4],88 % of control
COC(OC)c1[nH]c(=S)[nH]c(=O)c1Cc1c(Cl)cccc1Cl,T/C,[2],104 % of control
same,T/C,[3],104 % of control
same,T/C,[5],100 % of control
O=[N+]([O-])c1cc([N+](=O)[O-])c2ccc(S(=O)(=O)O)cc2c1O,T/C,"dose: 6.25 mg/kg/injection, schedule: Q04DX002 (ip), vehicle: saline",106 % of control
same,T/C,"dose: 12.5 mg/kg/injection, schedule: Q04DX002 (ip), vehicle: saline",101 % of control
same,T/C,"dose: 25.0 mg/kg/injection, schedule: Q04DX002 (ip), vehicle: saline",105 % of control
O=C(O)CNC(=O)c1ccc([N+](=O)[O-])cc1,T/C,"dose: 100.0 mg/kg/injection, schedule: Q01DX009 (ip), vehicle: saline with Tween-80",90 % of control
same,T/C,"dose: 200.0 mg/kg/injection, schedule: Q01DX009 (ip), vehicle: saline with Tween-80",90 % of control
same,T/C,"dose: 400.0 mg/kg/injection, schedule: Q01DX009 (ip), vehicle: saline with Tween-80",86 % of control
C#CCOCC(O)CO (stereo unspecified),T/C,[6],88 % of control
same,T/C,[7],106 % of control
same,T/C,"dose: 12.5 mg/kg/injection, schedule: Q04DX003 (ip), vehicle: water",93 % of control
same,T/C,[8],117 % of control
same,T/C,"dose: 25.0 mg/kg/injection, schedule: Q04DX003 (ip), vehicle: water",111 % of control
same,T/C,[9],117 % of control and 123 % of control
same,T/C,[10],95 % of control
same,T/C,[11],95 % of control and 122 % of control
same,T/C,[12],98 % of control
same,T/C,[13],110 % of control
CCCCCC(C)(C1=NC(C)(C)CC(C)O1)c1ccccc1 (stereo unspecified),T/C,"dose: 12.5 mg/kg/injection, schedule: Q01DX001 (ip), vehicle: saline sonified",100 % of control
same,T/C,"dose: 25.0 mg/kg/injection, schedule: Q01DX001 (ip), vehicle: saline sonified",100 % of control
same,T/C,"dose: 50.0 mg/kg/injection, schedule: Q01DX001 (ip), vehicle: saline sonified",100 % of control
C/C=C/N=NNc1ccccc1OC,T/C,"dose: 25.0 mg/kg/injection, schedule: Q04DX003 (ip), vehicle: saline with Tween-80",113 % of control
same,T/C,"dose: 50.0 mg/kg/injection, schedule: Q04DX003 (ip), vehicle: saline with Tween-80",104 % of control
same,T/C,[2],104 % of control
CC(=O)Nc1ccc2cnn(C(C)=O)c2c1,T/C,[8],89 % of control
same,T/C,[9],86 % of control
same,T/C,[10],113 % of control
same,T/C,[11],88 % of control
same,T/C,[12],111 % of control
same,T/C,[13],92 % of control
same,T/C,"dose: 200.0 mg/kg/injection, schedule: Q04DX003 (ip), vehicle: water",97 % of control
same,T/C,"dose: 400.0 mg/kg/injection, schedule: Q01DX009 (ip), vehicle: water",91 % of control
same,T/C,"dose: 400.0 mg/kg/injection, schedule: Q04DX003 (ip), vehicle: water",97 % of control
CC(=O)O/C(C#N)=C1\CCCC\C1=C(\C#N)OC(C)=O,T/C,"dose: 25.0 mg/kg/injection, schedule: Q01DX001 (ip), vehicle: saline with Tween-80",103 % of control
CC[N+](CC)(CC)CC,T/C,"dose: 3.13 mg/kg/injection, schedule: Q01DX009 (ip), vehicle: saline with Tween-80",110 % of control
same,T/C,"dose: 6.0 mg/kg/injection, schedule: Q01DX009 (ip), vehicle: saline with Tween-80",183 % of control
same,T/C,"dose: 9.0 mg/kg/injection, schedule: Q01DX009 (ip), vehicle: saline with Tween-80",94 % of control
same,T/C,[14],107 % of control
same,T/C,[15],95 % of control
same,T/C,[16],107 % of control
same,T/C,[17],91 % of control
same,T/C,"dose: 50.0 mg/kg/injection, schedule: Q01DX009 (ip), vehicle: saline",92 % of control
same,T/C,[1],100 % of control
c1ccc2c(c1)nnn1c3cnccc3nc21,T/C,"dose: 6.25 mg/kg/injection, schedule: Q01DX009 (ip), vehicle: saline with Tween-80",120 % of control
COc1cccc2c1C(=O)c1c(O)c3c(c(O)c1C2=O)C[C@@](O)(/C(C)=N/NC(=O)c1ccc(-c2ccccc2)cc1)C[C@@H]3OC1CC(N)C(O)C(C)O1 (stereo partly specified),T/C,"dose: 0.78 mg/kg/injection, schedule: Q01DX009 (ip), vehicle: water",107 % of control
same,T/C,"dose: 1.56 mg/kg/injection, schedule: Q01DX009 (ip), vehicle: water",122 % of control
same,T/C,"dose: 3.12 mg/kg/injection, schedule: Q01DX009 (ip), vehicle: water",224 % of control
same,T/C,[6],157 % of control
same,T/C,[7],169 % of control
CCNC(=O)OCc1c(COC(=O)NCC)c(-c2ccc(F)cc2)n2c1CCC2,T/C,"dose: 25.0 mg/kg/injection, schedule: Q01DX009 (ip), vehicle: other",98 % of control
O=C(Nc1ccc(NC(=O)Nc2cccc(C3=NCCN3)c2)cc1)Nc1cccc(C2=NCCN2)c1,T/C,"dose: 60.0 mg/kg/injection, schedule: Q01DX010 (ip), vehicle: saline",165 % of control and 190 % of control
same,T/C,"dose: 120.0 mg/kg/injection, schedule: Q01DX010 (ip), vehicle: saline",160 % of control and 175 % of control
same,T/C,"dose: 240.0 mg/kg/injection, schedule: Q01DX010 (ip), vehicle: saline",175 % of control and 190 % of control
same,T/C,"dose: 480.0 mg/kg/injection, schedule: Q01DX010 (ip), vehicle: saline",250 % of control and 300 % of control
C=CCOB(OCC=C)OCC=C,T/C,[15],108 % of control
same,T/C,[17],100 % of control
same,T/C,[1],91 % of control
CC1CCC2C(C1)N(C(C)C)OC2(C)C (stereo unspecified),T/C,[2],109 % of control
same,T/C,[3],100 % of control
same,T/C,[5],90 % of control
Cc1ccc(S(=O)(=O)NC(=O)OC23COCN2COC3)cc1,T/C,[4],116 % of control
COc1ccc(OC)c(NC(=O)Nc2c(C)n(C)n(-c3ccccc3)c2=O)c1,T/C,"dose: 100.0 mg/kg/injection, schedule: Q01DX009 (ip), vehicle: Klucel (hydroxypropylcellulose) (HPC)",105 % of control
same,T/C,"dose: 200.0 mg/kg/injection, schedule: Q01DX009 (ip), vehicle: Klucel (hydroxypropylcellulose) (HPC)",90 % of control
same,T/C,"dose: 400.0 mg/kg/injection, schedule: Q01DX009 (ip), vehicle: Klucel (hydroxypropylcellulose) (HPC)",105 % of control
Nc1ncnc2c(C3OC(CO)C(O)C3O)[nH]nc12 (stereo unspecified),T/C,"dose: 1.5 mg/kg/injection, schedule: Q01DX009 (ip), vehicle: saline",100 % of control
same,T/C,"dose: 2.3 mg/kg/injection, schedule: Q01DX009 (ip), vehicle: saline",109 % of control
same,T/C,"dose: 8.0 mg/kg/injection, schedule: Q01DX009 (ip), vehicle: saline",113 % of control
same,T/C,[14],159 % of control
same,T/C,"dose: 33.0 mg/kg/injection, schedule: Q04DX003 (ip), vehicle: saline",104 % of control
same,T/C,[1],114 % of control
same,T/C,"dose: 75.0 mg/kg/injection, schedule: Q04DX003 (ip), vehicle: saline",95 % of control
same,T/C,[18],118 % of control
O=C(Nc1ccc(F)cc1)Nc1cccc2ccccc12,T/C,"dose: 100.0 mg/kg/injection, schedule: Q01DX001 (ip), vehicle: saline with Tween-80",90 % of control
same,T/C,"dose: 200.0 mg/kg/injection, schedule: Q01DX001 (ip), vehicle: saline with Tween-80",90 % of control
same,T/C,"dose: 400.0 mg/kg/injection, schedule: Q01DX001 (ip), vehicle: saline with Tween-80",90 % of control
Nc1cc(Cl)c2cccnc2c1O,T/C,[14],111 % of control and 115 % of control
same,T/C,"dose: 22.0 mg/kg/injection, schedule: Q01DX009 (ip), vehicle: saline",118 % of control
same,T/C,[16],104 % of control and 117 % of control
same,T/C,"dose: 44.0 mg/kg/injection, schedule: Q04DX003 (ip), vehicle: saline sonified",100 % of control
same,T/C,"dose: 50.0 mg/kg/injection, schedule: Q04DX003 (ip), vehicle: saline sonified",100 % of control
same,T/C,"dose: 66.0 mg/kg/injection, schedule: Q04DX003 (ip), vehicle: saline sonified",118 % of control
same,T/C,[18],113 % of control
